Data on five compounds can be found in patent publication US10501440B2, “Heteroarylcarboxamide derivatives as plasma kallikrein inhibitors” (Boehringer Ingelheim International GmbH, priority 2017, dated 2019).

One may read the Ki as a measure of affinity in units of concentration, obtained from inhibition or displacement. High values mean a looser hold on the target, low ones a stronger hold on the target. The term IC50 denotes the concentration that inhibits the measured activity by half. The IC90 is the concentration needed for an effect of 90%.

Read-outs that look alike come from different tables or passages of the source.

What all share (assay type): biochemical
Test [1] addresses T1, KLKB1 (Homo sapiens (Human), UniProt P03952). The test can be described thus: Inhibition of KLKB1 (Ki), kinetic assay. The following applies: 24° C., 0.25 mM H-Pro-Phe-Arg-AMC; IC50 corrected for KM of substrate. On the procedure:
(§1) The ability of compounds of formula (I) to inhibit plasma kallikrein (KLKB1), Factor XIIa (FXIIa), Factor XIa (FXIa), Factor Xa (FXa), Factor IIa (alpha-thrombin; FIIa), plasmin, trypsin, tissue kallikrein 1 (KLK1), Factor Vila (FVIIa), or FVIIa complexed with Tissue Factor, phospholipids and CaCl2 (FVIIa/TF/PL/CaCl2) was determined using the following biochemical assays in assay buffer (100 mM Tris, 150 mM NaCL, adjusted to a pH of 7.8 with HCl, and containing 0.1% (w/v) BSA and 0.05% (v/v) Tween20) in the presence of 1% (v/v) DMSO:
Evaluation of the Inhibition of KLKB1 (Ki)
Measurements were performed in a kinetic interval every 2nd minute for 16 min using a Spectramax M5 (Molecular Devices) with the following settings of the wavelength excitation of 350 nm and wavelength emission of 450 nm.
(§2) The number of the compound corresponds to the number of the Example in the experimental section.
Calculation of pIC50 and Pki Values
The pIC50 values were then fitted using a four-parametric fitting procedure using GraphPad Prism (version 6; GraphPad Software, Inc.).
Where the IC50 is in molar and the KM value in mM.

Test [2] addresses T1, KLKB1. Description: Inhibition of KLKB1 using an endpoint assay (fluorogenic substrate H-Pro-Phe-Arg-AMC). On the procedure: as §1
Evaluation of the Inhibition of KLKB1 Using an Endpoint Assay
Human KLKB1 (0.01 U/mL; Enzyme Research Laboratories) or rat KLKB1 (0.625 nM; produced in-house) was incubated for 1 h at room temperature with 0.10 μM fluorogenic substrate H-Pro-Phe-Arg-AMC (11295 from Bachem) and various concentrations of the test compound in assay buffer. Subsequently, PPACK 11 (Calbiochem) was added as a stop solution to achieve a final concentration of 1 μM and fluorescence was measured using an Envision Reader (PerkinElmer) with the wavelength excitation setting of 355 nm and the wavelength emission setting of 460 nm.
as §2

In test [3] the target is T1, KLKB1. Description: Inhibition of KLKB1 in kaolin activated human PPP. As for the experimental part: Evaluation of the Inhibition of KLKB1 in Kaolin Activated Human PPP
Platelet poor plasma (PPP) obtained from human wholeblood, anticoagulated with Na-Citrat, was incubated with various concentrations of the test compound together with either 25, 75, 250, or 750 μg/mL kaolin in assay buffer for 20 min at 37° C. such that for each kaolin dose used a concentration response was obtained for the test compound.
as §2

The target of test [4] is T1, KLKB1. Description: Inhibition of human KLKB1 in dextran sulfate activated human PPP. On the procedure: Evaluation of the Inhibition of Human KLKB1 in Dextran Sulfate Activated Human PPP
Platelet poor plasma (PPP) obtained from human wholeblood, anticoagulated with EDTA, was activated with 12.5 μg/mL dextransulfate for 7 min on ice. The activated PPP was incubated with various concentrations of the test compound in assay buffer. Afterwards the mixture was incubated at 24° C. with 0.25 mM fluorogenic substrate H-Pro-Phe-Arg-AMC (11295 from Bachem) and measurements were performed in a kinetic interval every 2nd minute for 16 min using a Spectramax M5 (Molecular Devices) with the following settings of the wavelength excitation of 350 nm and wavelength emission of 450 nm.
as §2

The mark [5] stands for this setting: endpoint assay, 1 h at room temperature, 0.10 μM H-Pro-Phe-Arg-AMC, read-out: IC50.
Where [6] appears, read: human platelet poor plasma (Na-Citrat), 25, 75, 250 or 750 μg/mL kaolin, global fit, read-out: IC50.
Where [7] appears, read: human platelet poor plasma (EDTA) activated with 12.5 μg/mL dextransulfate, 24° C., read-out: IC50.

T1 sequence (P03952 391-638 limits assumed): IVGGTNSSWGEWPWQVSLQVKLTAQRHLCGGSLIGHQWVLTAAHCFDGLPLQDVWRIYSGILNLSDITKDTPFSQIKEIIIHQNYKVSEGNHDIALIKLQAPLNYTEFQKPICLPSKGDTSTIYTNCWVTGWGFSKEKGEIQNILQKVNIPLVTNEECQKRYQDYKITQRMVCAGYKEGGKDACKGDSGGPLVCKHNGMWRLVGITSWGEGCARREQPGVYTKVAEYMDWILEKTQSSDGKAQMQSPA
T1 sequence (P03952 20-390 partner limits assumed): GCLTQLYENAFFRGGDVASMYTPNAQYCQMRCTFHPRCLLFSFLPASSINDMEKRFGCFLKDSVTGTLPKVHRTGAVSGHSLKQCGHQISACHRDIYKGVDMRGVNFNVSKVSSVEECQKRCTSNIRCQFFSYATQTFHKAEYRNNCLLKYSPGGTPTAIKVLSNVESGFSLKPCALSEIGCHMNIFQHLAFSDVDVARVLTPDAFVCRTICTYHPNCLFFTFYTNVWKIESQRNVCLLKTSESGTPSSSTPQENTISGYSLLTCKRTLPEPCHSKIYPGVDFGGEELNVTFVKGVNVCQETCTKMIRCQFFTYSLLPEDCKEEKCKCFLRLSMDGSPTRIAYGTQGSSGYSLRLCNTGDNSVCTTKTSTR

The compound `Cc1nc(N2CC3CC3C2)ccc1Cn1cc(C(=O)N[C@@H]2CCc3c2ccnc3N)cn1` (stereo partly drawn) [Example 1, N-[(5R)-1-Amino-5H,6H,7H-cyclopenta[c]pyridin-5-yl]-1-[(6-{3-azabicyclo[3.1.0]hexan-3-yl}-2-methylpyridin-3-yl)methyl]-1H-pyrazole-4-carboxamide] yielded a Ki on KLKB1 [1] of 0.3 nM. In addition, the IC50 against KLKB1 [2] was 0.5 nM; against KLKB1 [3], 19 nM; on KLKB1 [4], 54.1 nM. It took 199 nM to reach the 90% level at KLKB1 [3] (IC90).
On to `Cc1nc(N2CC3C(C2)C3(F)F)ccc1Cn1cc(C(=O)N[C@@H]2CCc3c2ccnc3N)cn1` (stereo partly drawn) [Example 9, N-[(5R)-1-Amino-5H,6H,7H-cyclopenta[c]pyridin-5-yl]-1-[(6-{6,6-difluoro-3-azabicyclo[3.1.0]hexan-3-yl}-2-methylpyridin-3-yl)methyl]-1H-pyrazole-4-carboxamide], for which the affinity at KLKB1 [1], expressed as Ki, was 0.4 nM. Besides, the IC50 on KLKB1 [2] (setting [5]) amounted to 0.6 nM; at KLKB1 [3] (setting [6]), 14 nM; at KLKB1 [4] (setting [7]) it was 18.1 nM. Moreover, the IC90 against KLKB1 [3] was 89.5 nM.
As to `Cc1nc(N2CC3CC3C2)ncc1Cn1cc(C(=O)N[C@@H]2CCc3c2ccnc3N)cn1` (stereo partly drawn) [Example 11], the Ki on KLKB1 [1] came to 1.5 nM. Moreover, the values for the IC50 on KLKB1 [2] (setting [5]), at KLKB1 [3] (setting [6]) and at KLKB1 [4] (setting [7]) were 1.7 nM, 23.9 nM and 50.3 nM, respectively. Moreover, the IC90 at KLKB1 [3] (human platelet poor plasma (Na-Citrat), 25, 75, 250 or 750 μg/mL kaolin, global fit, read-out: IC90) worked out at 232 nM.
With `Cc1nc(N2C[C@@H]3[C@H](C#N)[C@@H]3C2)ccc1Cn1cc(C(=O)N[C@@H]2CCc3c2ccnc3N)cn1` [Example 13, N-[(5R)-1-Amino-5H,6H,7H-cyclopenta[c]pyridin-5-yl]-1-({6-[(1R,5S,6R)-6-cyano-3-azabicyclo[3.1.0]hexan-3-yl]-2-methylpyridin-3-yl}methyl)-1H-pyrazole-4-carboxamide], affinity at KLKB1 [1] was put at a Ki of 0.3 nM. In addition, the concentration for half-maximal inhibition (IC50) amounted to 0.5 nM on KLKB1 [2] (setting [5]) and 32.3 nM on KLKB1 [4] (setting [7]).
On the same counts, the results for `Cc1nc(N2CCC3(CC3)C2)ccc1Cn1cc(C(=O)N[C@@H]2CCc3c2ccnc3N)cn1` [Example 14] are 1.1 nM, 2 nM and 80.3 nM.
